Assay results from patent US8952192B2, “Phosphorylated and branched dihydroxy-pentane-dione (DPD) analogs as quorum sensing inhibitors in bacteria” (University of Maryland, College Park, priority 2011, dated 2015).
Entries after “also recorded” stand apart in the source; their conditions may differ. Like-named read-outs stand apart in the source and are kept apart here.

How the values were obtained:
[1] = test system: lsr expression in E. coli (lsr-lacZ reporter strains); assay: QS response (lsr expression): AI-2 dependent β-galactosidase production, Miller assay; type: cell-based, Escherichia coli
Description: The panel of C1-alkyl analogs was screened to identify QS modulators in the enteric bacteria E. coli and S. typhimurium. Transcription of the QS associated lsr operon, by using lsr-lacZ reporter strains (Table 2) which produce β-galactosidase in response to added AI-2 was monitored. In order to first establish if the analogs were agonists or antagonists in the QS circuit, the analogs were incubated with E. coli LW7 pLW11 and S. typhimurium MET715 (FIG. 19a-b) both of which are luxS^−. None of the analogs, except ethyl-DPD behaved as agonists for lsr expression. Previous studies investigating AI-2 antagonism in P. aeruginosa or in S. typhimurium were carried out using chemically synthesized AI-2 added to luxS^− cells. […] The same trends were obtained by adding a 1:1 ratio of enzymatically synthesized AI-2 and DPD analogs to the luxS^− strains E. coli LW7 pLW11 and S. typhimurium MET715 (FIG. 11a-b). None of the tested DPD analogs were bacteriocidal or bacteriostatic as the OD600 values of E. coli ZK126 pLW11 and S. typhimurium MET708 in the presence and absence of the analogs were similar (FIG. 10). Though the QS circuitry of the enteric organisms, E. coli and S. typhimurium are homologous they respond differently to the DPD analogs. The E. coli QS circuitry is susceptible to being silenced by a variety of DPD analogs of different shapes and sizes whereas in S. typhimurium, only a handful of DPD analogs could antagonize the action of AI-2. […] Isobutyl-DPD emerged as an effective and non-species-specific quencher; causing significant lsr expression knockdowns in both E. coli and S. typhimurium.
The QS response indicated by lsr gene expression was analyzed in pure culture studies by culturing E. coli LW7 pLW11, E. coli ZK126 pLW11 and S. typhimurium MET708, S. typhimurium MET715 overnight in LB medium supplemented with appropriate antibiotics as stated previously. These cells were then diluted into fresh LB medium (with antibiotics) and grown to an OD600 of 0.8-1.0 at 30° C., 250 rpm. Cells were then collected by centrifugation at 10,000×g for 10 minutes, and resuspended in 10 mM phosphate buffer. AI-2 (20 μM) and the respective analog (20 μM) were added to the E. coli or S. typhimurium suspension for 2 hours at 37° C. AI-2 dependent β-galactosidase production was quantified by the Miller assay.
The QS response indicated by lsr gene expression was analyzed in pure culture studies by culturing E. coli LW7 pLW11 and S. typhimurium MET715 overnight at 30° C. in LB medium supplemented with appropriate antibiotics as stated previously. These cells were then diluted into fresh LB medium (with antibiotics) and grown to an OD600 of 0.4-0.8 at 37° C., 250 rpm. Cells were then collected by centrifugation at 10,000×g for 10 min and resuspended in 10 mM phosphate buffer. AI-2 (20 μM) and the respective analog (20 μM) were added to the E. coli or S. typhimurium suspension for 2 h at 37° C. AI-2 dependent β-galactosidase production was quantified by the Miller assay.
The QS response indicated by lsr gene expression was analyzed in pure culture studies by culturing E. coli LW7 pLW11, E. coli ZK126 pLW11 and S. typhimurium MET708, S. typhimurium MET715 overnight in LB medium individually supplemented with appropriate antibiotics, as specified above. These cells were diluted into fresh LB medium (with antibiotics) and grown to an OD600 of 0.8-1.0 at 30° C., 250 rpm. Cells were collected by centrifugation at 10,000×g for 10 minutes, and resuspended in 10 mM phosphate buffer. AI-2 (20 μM) and the respective analog (20 μM) were added to the E. coli or S. typhimurium suspension for 2 hours at 37° C. AI-2 dependent β-galactosidase production was quantified by the Miller assay.

[2] = test system: pyocyanin production in P. aeruginosa PAO1; assay: QS response (pyocyanin production); type: cell-based; conditions: pure culture P. aeruginosa PAO1, DPD analogs (100 μM)
Description: Identifying Modulators of P. aeruginosa QS. DPD analogs (100 μM) were screened for activity in P. aeruginosa PAO1 by monitoring pyocyanin production (FIG. 34b and FIG. 38).
The cells were grown with the analog at 3 mL total volume in 50 mL flasks in LB medium, with continuous shaking. Between 22-24 h, when the cells turned green after pyocyanin secretion, the pigment was extracted. The pyocyanin quantification assay was conducted as described. 2 mL chloroform was added to the 3 mL culture and pipetted up and down. 1 mL of the chloroform was transferred to a separate tube and the pyocyanin was re-extracted into 200 μL of 0.2 M HCl. The absorbance of the solution was measured at OD 520 nm. To calculate the concentration of pyocyanin extracted as μg/mL, the OD at 520 nm was multiplied by 17.07.

E. coli W3110 pCT6 dsRED = assay: Tri-species synthetic ecosystem (E. coli, S. typhimurium, P. aeruginosa): AI-2 mediated dsRED expression; type: cell-based; conditions: tri-species culture, 40 μM analog, no exogenous AI-2, 24 h
Description: (§1) Effect of analogs in a tri-species synthetic ecosystem. […] Isobutyl-DPD (40 μM) and phenyl-DPD (40 μM) were added to a tri-species synthetic ecosystem created by culturing E. coli, S. typhimurium and P. aeruginosa in the same tubes. In order to differentiate and monitor the QS response from each organism, different and orthogonal reporter strains were used; in E. coli, AI-2 mediated dsRED expression, in S. typhimurium, AI-2 mediated β-galactosidase production; and in P. aeruginosa effects of AI-2 were examined for pyocyanin production.
(§2) S. typhimurium MET708, P. aeruginosa PAO1 and E. coli W3110 pCT6 dsRED were each cultured separately overnight in LB medium supplemented with the appropriate antibiotic. P. aeruginosa PAO1, S. typhimurium MET708 and E. coli W3110 pCT6 dsRED were diluted (25 μL:2.5 μL:100 μL) of the overnight culture respectively, into a single 2 mL final volume of fresh LB medium without antibiotics. […] The S. typhimurium lacZ (β-galactosidase) activity was measured after 4 h. The E. coli response was determined after 24 h, by fixing the cells with 1:1 cold 4% paraformaldehyde and using flow cytometric analysis. Samples were analyzed by flow cytometry (FACS Canto II, BD 394 Biosciences), with 30,000 gated events analyzed per sample. […]

S. typhimurium MET708 = assay: Tri-species synthetic ecosystem (E. coli, S. typhimurium, P. aeruginosa): AI-2 mediated β-galactosidase production; type: cell-based; conditions: tri-species culture, 40 μM analog, no exogenous AI-2, 4 h
Description: as §1, §2

P. aeruginosa PAO1 = assay: Tri-species synthetic ecosystem (E. coli, S. typhimurium, P. aeruginosa): pyocyanin production; type: cell-based; conditions: tri-species culture, 40 μM analog, no exogenous AI-2, 24 h
Description: as §1, §2

V. harveyi = assay: DPD analogs and representative bacterial species affected (Table 1); type: cell-based; set-up: key: x: DPD Analogs and representative bacterial species affected
E. coli = assay: as above; type: cell-based; set-up: key: x: DPD Analogs and representative bacterial species affected

| Compound | inhibition of AI-2-mediated lsr expression (β-galactosidase), in words ([1]; E. coli LW7 pLW11 (luxS−), 20 μM AI-2 (DPD) + 20 μM analog) | IC50 ([1]; Escherichia coli, read-out: IC50 (lsr expression in E. coli)) | inhibition of pyocyanin production [2] | QS inhibition in E. coli (dsRED expression) (E. coli W3110 pCT6 dsRED) | QS inhibition in S. typhimurium (β-galactosidase production) (S. typhimurium MET708) | QS inhibition in P. aeruginosa (pyocyanin production) (P. aeruginosa PAO1) | effect on native lsr expression (QS response) ([1]; E. coli ZK126 pLW11 (luxS+), cells produce their own AI-2) | IC50 (lsr expression in E. coli), in words ([1]; Example 6) | IC50 ([1]; concentration reducing lsr expression (β-galactosidase production) to 50% in the presence of 20 μM exogenously added synthetic DPD, read-out: IC50 of analog (nM) to inhibit QS in E. coli) | bacterial species affected: V. harveyi (V. harveyi) | bacterial species affected: E. coli (E. coli) |
| --- | --- | --- | --- | --- | --- | --- | --- | --- | --- | --- | --- |
| O=C(C(=O)C(O)CO)c1ccccc1 (centres unmarked) [Phenyl-DPD, Phenyl DPD] | no | > 40000 nM | some inhibition | largely ineffective | largely ineffective | retained some activity |  |  |  |  |  |
| CC(C)CC(=O)C(=O)[C@@H](O)CO [Isobutyl-DPD, isobutyl-DPD] |  |  | lack of inhibitory effects | inhibit all three species | inhibit all three species |  | significant knocked down; also recorded: potent QS “quencher” | nanomolar range | 54 nM | x | x |
